Data as given in ChEMBL document CHEMBL1146283, “Development of potent, orally active 1-substituted-3,4-dihydro-2-quinolone glycogen phosphorylase inhibitors” (Bioorg Med Chem Lett, 2007).

Columns and labels:
[1] = Clearance in AP Wistar rat at 2.1 to 4.0 mg/kg, iv and 8.1 to 8.9 mg/kg, po; format: ADME, organism-based; settings: in vivo
[2] = Half life in AP Wistar rat at 2.1 to 4.0 mg/kg, iv and 8.1 to 8.9 mg/kg, po; format: ADME, organism-based; settings: in vivo
[3] = Bioavailability in AP Wistar rat at 2.1 to 4.0 mg/kg, iv and 8.1 to 8.9 mg/kg, po; format: ADME, organism-based; settings: in vivo, at 8.1 to 8.9 mg/kg
[4] = Volume of distribution at steady state in AP Wistar rat at 2.1 to 4.0 mg/kg, iv and 8.1 to 8.9 mg/kg, po; format: ADME, organism-based; settings: in vivo, read-out: Vdss
in vitro [5] = settings: human, Caco-2
in vitro [6] = settings: human, Caco-2; remark: listed apart in the source

| clearance [1] [mL/min/kg] | half-life [2] [h] | bioavailability [3] [%] | Vd [4] [L/kg] | Papp A→B (in vitro [5]) [×10⁻⁶ cm/s] | Papp B→A (in vitro [6]) [×10⁻⁶ cm/s] | Structure (SMILES) |
| --- | --- | --- | --- | --- | --- | --- |
| 5.1 | 5.4 | 12 | 1.4 | – | – | O=C(CN1C(=O)C(NC(=O)c2cc3cc(Cl)sc3[nH]2)Cc2ccccc21)NCCO (stereo not given) |
| 1.2 | 16 | 35 | 1.4 | – | – | NC(=O)CN1C(=O)C(NC(=O)c2cc3cc(Cl)sc3[nH]2)Cc2ccccc21 (stereo not given) |

Further lines, the compound ahead of its results:

| Structure (SMILES) | clearance [1] [mL/min/kg] | half-life [2] [h] | bioavailability [3] [%] | Vd [4] [L/kg] | Papp A→B (in vitro [5]) [×10⁻⁶ cm/s] | Papp B→A (in vitro [6]) [×10⁻⁶ cm/s] |
| --- | --- | --- | --- | --- | --- | --- |
| O=C(NC1Cc2ccccc2N(CC(CO)CO)C1=O)c1cc2cc(Cl)sc2[nH]1 (racemic) | 2.5 | 13 | 41 | 2.2 | – | – |
| O=C(NC1Cc2ccccc2N(C[C@@H](O)CO)C1=O)c1cc2cc(Cl)sc2[nH]1 (mixture of isomers) | 2.4 | 11 | > 100 | 1.9 | 29 | 29 |
| O=C(O)CN1C(=O)C(NC(=O)c2cc3sc(Cl)c(Cl)c3[nH]2)Cc2ccccc21 (stereo not given) | – | – | – | – | 0.3 | 11 |
